These are literature values, as cited in patent US8158770B2, “Content dependent inhibitors of cytidine deaminases and uses thereof” (University of Rochester, priority 2004, dated 2012).

The conditions of data set [1]: by comparison to 5-aza-dC and ara-C.
The conditions of data set [2]: by comparison to 5-aza-dC and ara-C. The source holds these as a separate data set.

As for `O=c1ncccn1[C@@H]1O[C@H](CO)[C@@H](O)[C@H]1O` [zebularine, 1-(beta-D-ribofuranosyl)-1,2-dihydropyrmidin-2-one], in data set [1], the “chemically stable in aqueous solution, up to pH” value was at most 12 pH. In data set [2], the cytotoxicity result is listed as “considerably less cytotoxic”.
